Measured values published in US6627218B2, “Cationic amphiphiles of cholesterol” (The University of Tennessee Research Foundation, priority 1991, dated 2003).
Counter-ions that a name gives are not always drawn.

Assays:
protein kinase C (PKC) = assay: Mixed micelle assay of protein kinase C; assay type: biochemical, rat; details: pure cationic cholesterol derivative; diolefin, phosphatidyl serine and Ca2+ stimulated PKC; read-out: PKC Inhibition IC50
Description: As rapidly as possible, brains for 25 Sprague-Dawley rats (150-200 g) were removed, washed with 100 ml of 20 mM TRIS, 1 mM EDTA, 1 mM EGTA, pH 7.5, and homogenized in 150 ml of ice cold 20 mM TRIS, 10 mM EGTA, 2 mM EDTA, 10 mM DTT, 0.25 M sucrose, 2 mM PMSF and 100 μg/ml leupeptin, pH 7.5. The homogenate was immediately centrifuged at 100,000 g for 40 minutes at 4° C. in a Beckman Ti 50.2 rotor. The supernatant was applied to a 2.5×20 cm column of DEAE Sepharose (fast flow) containing 60 of resin equilibrated with 20 mM TRIS, 1 mM EDTA, 1 mM DTT, pH 7.5 (buffer A). The column was washed with 300 ml of buffer A and an additional 200 ml of buffer A containing 0.03 M KCl. Protein kinase C was eluted with a 500 ml continuous KCl gradient (0.03-0.3 M KCl). Fractions of 5 ml volumes were collected. Fractions showing calcium and phospholipid dependence were pooled; the salt concentration was adjusted to 1.5 KCl with the appropriate quantity of solid KCl. The crude sample containing 1.5 M KCl was stirred for 15 minutes and subsequently loaded onto a 1×10 cm column containing 9 ml Phenyl sepharose equilibrated with 1.5 M KCl in 20 mM TRIS, 0.5 mM EGTA, 1 mM DTT, pH 7.5 (buffer B). The column was washed with 90 ml of buffer B containing 1.5 M KCl. PKC was eluted with a 100 ml continuous KCl gradient (1.5-0 M KCl). Fractions of 3 ml volumes were collected. The column was washed with an additional 50 ml of buffer B. Most of the enzyme activity eluted during this stage. Fractions showing calcium and phospholipid dependence were pooled and concentrated to 4 ml using an Amicon ultrafiltration cell fitted with a YM-10 filter. The concentrated sample was loaded onto a 2.5×100 cm column containing 400 ml of Sephacryl S-200 HR beads equilibrated with buffer B containing 10% glycerol (buffer C). Fractions of 3 ml volumes were collected. About 150 ml of buffer was run through; PKC eluted very close to the column void volume. The fractions showing calcium and phospholipid dependence were pooled and loaded onto a 0.5×5 cm column containing 2.5 ml polylysine agarose equilibrated with buffer C. PKC was eluted with a 40 ml continuous KCl gradient (0-0.8 M KCl). Fractions of 1 ml volumes were collected. The first few active fractions were contaminated. The uncontaminated fractions were pooled, concentrated, and diluted with buffer C to remove the high salt content. After reconcentrating, the sample was divided into working portions, frozen in liquid nitrogen and stored at −80° C. Full activity was regained after rapid thawing. Trace impurities (116 k, 66 k, and 50 k Mr) could still be detected when the gel was silver stained heavily. The enzyme gave a specific activity of 200 nmoles phosphate incorporated per minute per milligram of protein when assayed for histone phosphorylation using the Triton mixed micelle assay with 6.5 mole % phosphatidylserine, 2.5 mole % DAG and 100 μM calcium present. Specific activities ranging from 30 nmoles/min/mg to 600 nmoles/min/mg have been observed for PKC using the Triton mixed micelle assay under the same conditions.
Phosphatidylserine and 1,2-diolefin with and without additive were dissolved in a solution of chloroform/methanol (2:1, v/v). Solvent was evaporated with a stream of nitrogen and last traces removed using a vacuum desiccator at 40° C. The lipid films were then solubilized by the addition of 3% Triton X-100, vortexed vigorously for 30 seconds and then incubated at 30° C. for 10 minutes to allow for equilibration. […]

mouse L929 cells [1] = assay: Transfection of L929 cells with pUCSV2CAT, CAT activity; assay type: cell-based; parameters: Relative CAT Activity: scale not given here; details: for Relative CAT Activity: dispersion with co-lipid DOPE, plasmid pUCSV2CAT, L929 cells
Description: (§1) The cationic cholesterol derivatives of the invention were mixed with a phospholipid co-lipid in chloroform solution at different molar ratios. The solvent was removed by evaporation under a stream of N2 gas and desiccated in vacuo for at least 30 minutes. The dry lipid film was hydrated in 20 mM Hepes buffer, pH 7.8, overnight. The suspension was sonicated in a bath-type sonicator (Laboratory Supplies, Hicksville, N.Y.) to generate small particle dispersions (average diameter=150 nm). The co-lipid is phosphatidylethanolamine.
Plasmid pUCSV2CAT (approximately 5kb in size) containing the structural gene of E. coli chloramphenicol acetyl transferase (CAT) driven by the SV40 virus early promoter was used as a model for the polyanions to be delivered by the cationic lipid dispersions. DNA was mixed with the cationic lipid dispersions of the invention in 1 ml serum-free M199 medium or McCoy's medium to form DNA/lipid complex. Cultured mammalian cells of about 80-100% confluency in a 6-well plate were washed once with serum-free medium. The DNA/lipid complex was added to the washed cells which were incubated at 37° C. for 5 hours. The cells were washed again and the serum-containing medium was added. Cells were harvested 30-72 hours later and extracted for cellular proteins. The CAT activity in the extracted protein was measured by using either [^14C] chloramphenicol or [^3H] acetyl CoA as a radiolabeled substrate. One activity unit of CAT is defined as nmole of radiolabeled substrate converted to the radiolabeled product in one minute. Protein content in the cell extracts was measured by the Bradford (BIORAD) assay.
Plasmid DNA, pUCSV2CAT, was used as a model compound for polyanions because it contains a structural gene for CAT. The efficiency of intracellular delivery can be readily assayed by the expression of CAT activity in the extracted proteins of the treated cells. Table 1 lists the CAT activity of mouse L929 cells which have been transfected with this plasmid DNA as mediated by various cationic lipid dispersions. In addition, the inhibitory activity of the pure cationic cholesterol derivatives on diolefin, phosphatidyl serine (PS), and Ca^2+stimulated protein kinase C was also measured. This activity was expressed as an IC50 which is the concentration at which 50% of PKC activity was inhibited.

mouse L929 cells [2] = assay: as above; assay type: cell-based; details: molar ratio 1:1, L929 cells (FIG. 4)
[3] = Formation of homogenous dispersion by sonication; assay type: physicochemical; details: sonication in low ionic strength buffer
Description: as §1
None of the cationic cholesterol derivatives by themselves form stable homogenous dispersion by sonication in a low ionic strength buffer. When stable dispersions are desired, it was necessary to add an acidic or neutral phospholipid to form mixed lipid dispersion. […] In the case of compound XIV, a minimal ration of phosphatidyl choline (PC) or phosphatidyl ethanolamine (PE) to XIV=4:6 is required. Such non-cationic lipid used in the dispersion is called co-lipid.

Row | Compound | IC50 (protein kinase C (PKC)) [µM] | Relative CAT Activity (mouse L929 cells [1]) | also measured
1 | CC(C)CCCC(C)C1CCC2C3CC=C4CC(C(=O)NCCN(C)C)CCC4(C)C3CCC12C (stereo not drawn) [Compound III, Cholesteryl-3β-Carboxyamidoethylenedimethylamine] | 258 | 18 | melting point: 167 to 169 °C
2 | CC(C)CCCC(C)C1CCC2C3CC=C4CC(OC(=O)CCC(=O)NCCN(C)C)CCC4(C)C3CCC12C (stereo not drawn) [VIII, Cholesteryl-3β-oxysuccinamidoethylenedimethylamine] | 191 | 100 | Content of cationic lipid in DOPE dispersion at maximal DNA delivery activity (mouse L929 cells [1]; DOPE co-lipid, L929 cells (FIG. 5)): 20-50%; DNA delivery activity of mixed dispersion (mouse L929 cells [1]; co-lipid DOPE, molar ratio 1:1, L929 cells (FIG. 4)): only DOPE supported the delivery activity; DNA delivery activity of mixed dispersion (mouse L929 cells [2]; acidic co-lipids PS and PG): None of the acidic lipids, such as PS and phosphatidylglycerol (PG) showed any activity; DNA delivery activity of mixed dispersion (mouse L929 cells [2]; other neutral co-lipids DOPC, N-methyl-DOPE, N,N-dimethyl DOPE): little or no activity; Minimal ratio of co-lipid (PC or PE) to cationic lipid required to form a uniform dispersion [3]: 1 part of PC or PE and 9 parts of compound VIII
3 | CC(C)CCCC(C)C1CCC2C3CC=C4CC(C(=O)OC(CN(C)C)C[N+](C)(C)C)CCC4(C)C3CCC12C (racemic) [Compound VI, 1-Dimethylamino-3-Trimethylammonio-DL-2-Propyl Cholesteryl Carboxylate Iodide Salt] | 11 |  | 
4 | CC(C)CCCC(C)C1CCC2C3CC=C4CC(OC(=O)CCC(=O)OC(CN(C)C)C[N+](C)(C)C)CCC4(C)C3CCC12C (racemic) [Compound XI, 1-Dimethylamino-3-Trimethylammonio-DL-2-Propyl-Cholesteryl-3β-Oxysuccinate Iodide Salt] | 15 |  | 
5 | 3β[N-(polyethyleneimine)-carbamoyl]cholesterol [XV] |  | 11 | 
6 | CC(C)CCCC(C)C1CCC2C3CC=C4CC(OC(=O)CCC(=O)NCC[N+](C)(C)C)CCC4(C)C3CCC12C (stereo not drawn) [IX, Cholesteryl-3β-Oxysuccinamidoethylenetrimethylammonium Iodide] | 59 | 50 | 
7 | CC(C)CCCC(C)C1CCC2C3CC=C4CC(OC(=O)NCCN(C)C)CCC4(C)C3CCC12C (stereo not drawn) [Compound XIV, 3β[N-(N′,N′-dimethylaminoethane)-carbamoyl]cholesterol] | > 1000 | 75 | 
8 | CC(C)CCCC(C)C1CCC2C3CC=C4CC(OC(=O)CCC(=O)OC(CN(C)C)CN(C)C)CCC4(C)C3CCC12C (stereo not drawn) [Compound X, 1,3-Bi-Dimethylamino-2-Propyl-Cholesteryl-3β-Oxysuccinate] | 408 | 0.5 | 
9 | CC(C)CCCC(C)C1CCC2C3CC=C4CC(C(=O)NCC[N+](C)(C)C)CCC4(C)C3CCC12C (stereo not drawn) [IV, Cholesteryl-3β-Carboxyamidoethylenetrimethylammonium Iodide] | 12 |  | 
10 | CC(C)CCCC(C)C1CCC2C3CC=C4CC(C(=O)OC(CN(C)C)CN(C)C)CCC4(C)C3CCC12C (stereo not drawn) [Compound V, 1,3-Bis-Dimethylamino-2-Propyl-Cholesteryl-3β-Carboxylate] | 643 | 2 | 
11 | CC(C)CCCC(C)C1CCC2C3CC=C4CC(OC(=O)CCC(=O)OCCN(C)CC[N+](C)(C)C)CCC4(C)C3CCC12C (stereo not drawn) [XIII, 2-{[2-Trimethylammonio]ethylmethylamino}ethyl-Cholesteryl-3β-Oxysuccinate Iodine Salt] | 20 |  | 
12 | CC(C)CCCC(C)C1CCC2C3CC=C4CC(OC(=O)CCC(=O)OCCN(C)CCN(C)C)CCC4(C)C3CCC12C (stereo not drawn) [XII, 2-{[2-(dimethylamino)ethyl]methylamino}ethyl-Cholesteryl-3β-Oxysuccinate] | 164 | 19 | melting point: 50 to 52 °C
13 | CC(C)CCCC(C)C1CCC2C3CC=C4CC(C(=O)NCCN)CCC4(C)C3CCC12C (stereo not drawn) [Compound VII, Cholesteryl-3β-Carboxyamidoethyleneamine] | 246 |  | 
